Experimental data as given in US10716850B2, “Anti-inflammatory factor retentate, method of isolation, and use” (Wellin, Inc., priority 2014, dated 2020).

How the values were obtained:
[1] = test system: carrageenan-induced footpad edema; experiment: quantitative rat carrageenan footpad assay with 125I-HSA; assay type: in vivo; settings: given 30 minutes prior to carrageenan; aspirin orally 200 mg per kilogram, MAIF intraperitoneally, all dosages
Experimental: Peak I from the G-10 column, supplied by Stolle Milk Biologics International, was prepared according to the methods described in U.S. Pat. No. 4,956,349. Lactose, obtained from commercial sources, was used as placebo. Aspirin was used as a positive control. Aspirin was dissolved in water and given orally by gastric gavage at the ratio of 200 mg per kilogram, a dose known to be active in the assay. […] The footpad assay was modified by using isotopically labeled human serum albumin (^125I-HSA) that localizes in the carrageenan-induced lesion in direct proportion to the volume of the exudate. By determining the total radioactive count in the footpad and comparing this to the counts in a known volume of plasma from the injected animal, a direct measurement of edema in microliters of plasma equivalents is obtained. ^125I-HSA was injected intravenously at a dose of 1.0 microcurie per rat. Female Dark Agouti rats were used. […]
To conduct the carrageenan footpad assay, 0.1 ml of 2% carrageenan was injected subcutaneously into each hind foot pad of an anesthetized rat. […] Both hind feet were then removed and the levels of radioactivity in each foot and in the 200 μl plasma standard were measured in an automated gamma counter. From these measurements the volume of edema in each foot was calculated and expressed in microliters.

[2] = test system: neutrophil migration into the pleural cavity; experiment: pleural neutrophil migration inhibition assay; assay type: in vivo, rat; settings: for dose range of activity in the neutrophil assay: compared together with Peak 12
Experimental: Neutrophil Migration Inhibition Assay. MAIF anti-inflammatory activity was determined in a pleural neutrophil migration inhibition assay. Female, white laboratory rats weighing 120 to 150 g were injected intrapleurally with 1.0 ml of 1% kappa carrageenin in PBS to induce neutrophil migration into the pleural cavity. Immediately, the rats were injected intraperitoneally with 0.5 ml doses of […] samples in PBS. PBS was used as a control. After four hours, the rats were sacrificed, pleural exudates were collected, and the emigrated neutrophils were counted.

[3] = test system: circulating neutrophils and lymphocytes; experiment: effect on circulating leucocytes; assay type: in vivo, rat; settings: other anti-inflammatory/immunomodulatory agents
Experimental: Two experiments were done. In the first, the MAIF preparation was administered intravenously at a dose of 40 mg/rat to one group of 6 animals and a control group was injected with saline. Blood samples were obtained at baseline, 1, 4, and 24 hours after treatment.
A further dose-response study was carried out in which a group of rats were injected intravenously with saline, 5, 10 or 20 mg of the MAIF preparation. Blood from each rat had been taken 7 days previously to provide baseline values and was taken again 4 hours after the injection of MAIF. Included on the graph are the results obtained from the sample taken 4 hours after the administration of 40 mg the MAIF preparation (see FIG. 31).

Molecule	dose range of activity in the neutrophil assay [2]	effect on circulating leucocytes in the rat [3]	further results
CC(=O)Oc1ccccc1C(=O)O [aspirin]	active in the high microgram to milligram range		footpad edema [1]: inhibited
O=P1(N(CCCl)CCCl)NCCCO1 (stereo not drawn) [cyclophosphamide]		depletes both circulating lymphocytes and neutrophils	
COc1ccc2c(c1)c(CC(=O)O)c(C)n2C(=O)c1ccc(Cl)cc1 [indomethacin]	active in the high microgram to milligram range		
O=C(O)c1cc(=O)[nH]c(=O)[nH]1 [orotic acid]			inhibitory activity on the migration of rat neutrophils ([2]; in the doses tested): Neither the sialic acid nor the orotic acid exhibited any inhibitory activity
cyclosporin A		causes an increase in the number of circulating neutrophils but lymphocyte numbers are either increased or not affected depending on the dose	
